Experimental data reported in PubChem BioAssay (NCI).
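Grown in 96-well plates, cells were treated for 48 hours with each compound at five concentrations. Insufficient inhibition: endpoint recorded as highest concentration tested. TGI is the concentration that stops growth completely.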 Where a SMILES comes first, the peptide text is derived from it. [ ]: non-standard residue; d: D form. The star is where a group is joined. Cbz = O=C(OCc1ccccc1)*; Boc = CC(C)(C)OC(=O)*; Aib = CC(C)(N)C(=O)O; OBn = c1ccc(CO*)cc1; OtBu = CC(C)(C)O*; βAla = NCCC(=O)O

Key:
Assay in all cases: growth of human tumour cells (NCI), 48 h
[1] = test system: ACHN renal
[2] = test system: COLO 205 colon
[3] = test system: HL-60(TB) leukemia
[4] = test system: MALME-3M melanoma
[5] = test system: MDA-MB-231 breast
[6] = test system: NCI-H23 lung
[7] = test system: OVCAR-3 ovarian
[8] = test system: RXF 393 renal
[9] = test system: SF-295 CNS
[10] = test system: SNB-75 CNS

Row | Compound | TGI [1] [µM] | TGI [2] [µM] | TGI [3] [µM] | TGI [4] [µM] | TGI [5] [µM] | TGI [6] [µM] | TGI [7] [µM] | TGI [8] [µM] | TGI [9] [µM] | TGI [10] [µM]
1 | CCCCSc1n/c(=C\c2ccc(N(C)C)cc2)c2nnnn12 | > 100 | > 100 | > 100 | > 100 | > 100 | > 100 | > 100 | > 100 | > 100 | > 100
2 | NC(CCCCNC(=O)OCc1ccccc1)C(=O)NC(CCCCNC(=O)OCc1ccccc1)C(=O)ON1C(=O)CCC1=O (configuration not stated) | > 100 | > 100 | > 100 | > 100 | > 100 | > 100 | – | > 100 | – | > 100
3 | CC(C)(C)OC(=O)CC(NC(=O)OC(C)(C)C)C(=O)NC(CCCCNC(=O)OCc1ccccc1)C(=O)NC(C)(C)C(=O)NCCC(=O)OCc1ccccc1 (configuration not stated) (Boc-D(OtBu)K(Cbz)[Aib][βAla]-OBn; configuration not given here) | > 100 | > 100 | > 100 | > 100 | > 100 | > 100 | > 100 | > 100 | > 100 | > 100
4 | COC(=O)c1cncc2c1CC1C3(C(=O)OC)C=NC(C4C(CO)=CCC43)C21C (configuration not stated) | > 100 | > 100 | > 100 | > 100 | > 100 | > 100 | – | > 100 | > 100 | > 100
5 | CCN(CC)CCCNc1ccc2nnn3c4ccc(O)cc4c(=O)c1c23 | 17.3 | 19.5 | 33.2 | 26.4 | 20.9 | 23.5 | 25.2 | 15 | 22.8 | 20.2
6 | CC(C)(C)N1Cc2ccccc2/C(=C/Sc2ccccc2)C1=O | 32 | 39 | 39.8 | 28.7 | 33.9 | 24.2 | 25.1 | 34 | 33.8 | 31.9
7 | COc1ccc(CNc2nc(NCc3ccc(OC)cc3)nc(N3CCOCC3)n2)cc1 | > 100 | > 100 | 13.6 | 5.84 | > 100 | 28.7 | 6.81 | > 100 | 8.98 | > 100
8 | CN(C(=O)c1ccc(Cl)s1)C(=S)N(C)C(=O)c1ccc(Cl)s1 | > 10 | > 10 | > 10 | > 10 | > 10 | > 10 | > 10 | > 10 | > 10 | > 10
9 | Cc1[nH]c(-c2ccccc2)c(-c2ccc(Cl)cc2)c1C(=O)ONC(=O)c1ccccc1 | 3.48 | 22.9 | 3.29 | 23.5 | 12.1 | 15.3 | 14.9 | 6.69 | 4.74 | 15.1
